Literature values, collected in PubChem BioAssay AID1259409 (Chemical Carcinogenesis Research Information System (CCRIS), 2018).

Tested on: rodent chemically induced tumor inhibition, incidence and multiplicity
Test: CCRIS tumor inhibitor studies
Details: Dose [Inhibitor]: 0, Route [Inhibitor]: ORAL, Promoter: NONE USED
Description: The CCRIS database contains chemical records with carcinogenicity, mutagenicity, tumor promotion, and tumor inhibition test results. It was developed by the National Cancer Institute (NCI). Data are derived from studies cited in primary journals, current awareness tools, NCI reports, and other sources. Test results have been reviewed by experts in carcinogenesis and mutagenesis.
CCRIS provides historical information from the years 1985 - 2011. It is no longer updated.
This is an archive assay for CCRIS tumor inhibitor studies.

CN1C(C(=O)Nc2ccccn2)=C(O)c2ccccc2S1(=O)=O
tumour outcome (control, treated, inhibition, significance) (Carcinogen: 2-ACETYLAMINOFLUORENE, 53-96-3, 130 PPM IN DIET FOR 18 WK BEGINNING 1 WK PRIOR TO CARCINOGEN TREATMENT (STUDY DURATION: 36 WK), Species: RAT, Strain/Sex: ACI/N/MALE, Target Tissue: Type of Lesion: LIVER: TUMOR, Dose [Carcinogen]: 200 PPM IN DIET FOR 16 WK): 10/10 (100%), 1/10 (10%), 90%, p=0.00006
tumour outcome (control, treated, inhibition, significance) (Carcinogen: 4-(METHYLNITROSAMINO)-1-(3-PYRIDYL-1-BUTANONE, 64091-91-4, 25 MG/KG IN DIET FOR 25 WK BEGINNING 2 WK PRIOR TO CARCINOGEN TREATMENT (STUDY DURATION: 25 WK), Species: MOUSE, Strain/Sex: STRAIN-A/FEMALE, Target Tissue: Type of Lesion: FORESTOMACH: TUMOR, Dose [Carcinogen]: 9.1 MG IN DRINKING WATER FOR 7 WK): 7/25 (28%), 2/24 (8%), 71%, not significant
tumour outcome (control, treated, inhibition, significance) (Carcinogen: 7,12-DIMETHYLBENZ[A]ANTHRACENE, 57-97-6, 0.01% IN HIGH-FAT (20% SOYBEAN OIL) DIET FOR 20 WK BEGINNING 1 WK POST CARCINOGEN DOSE (STUDY DURATION: 21 WK), Species: RAT, Strain/Sex: SPRAGUE-DAWLEY/FEMALE, Target Tissue: Type of Lesion: MAMMARY GLAND: ADENOCARCINOMA, Dose [Carcinogen]: 5 MG ONCE): 17/20 (85%), 19/21 (90%), -6%, not significant
tumour outcome (control, treated, inhibition, significance) (Carcinogen: 7,12-DIMETHYLBENZ[A]ANTHRACENE, 57-97-6, 0.01% IN LOW-FAT (0.5% SOYBEAN OIL) DIET FOR 20 WK BEGINNING 1 WK POST CARCINOGEN DOSE (STUDY DURATION: 21 WK), Species: RAT, Strain/Sex: SPRAGUE-DAWLEY/FEMALE, Target Tissue: Type of Lesion: MAMMARY GLAND: ADENOCARCINOMA, Dose [Carcinogen]: 5 MG ONCE): 10/18 (56%), 9/20 (45%), 20%, not significant
tumour outcome (control, treated, inhibition, significance) (Carcinogen: AZOXYMETHANE, 25843-45-2, 25 PPM IN DIET BEGINNING 1 WK POST CARCINOGEN DOSE FOR DURATION OF STUDY (STUDY DURATION: 56 WK), Species: RAT, Strain/Sex: F344/MALE, Target Tissue: Type of Lesion: COLON: ADENOCARCINOMA, Dose [Carcinogen]: 29.6 MG/KG IN NORMAL SALINE ONCE): 17/30 (57%), 10/30 (33%), 41%, not calculated
tumour outcome (control, treated, inhibition, significance) (Carcinogen: AZOXYMETHANE, 25843-45-2, 25 PPM IN DIET BEGINNING 1 WK POST CARCINOGEN DOSE FOR DURATION OF STUDY (STUDY DURATION: 56 WK), Species: RAT, Strain/Sex: F344/MALE, Target Tissue: Type of Lesion: COLON: ADENOMA, Dose [Carcinogen]: 29.6 MG/KG IN NORMAL SALINE ONCE): 11/30 (37%), 16/30 (53%), -43%, not calculated
tumour outcome (control, treated, inhibition, significance) (Carcinogen: AZOXYMETHANE, 25843-45-2, 25 PPM IN DIET BEGINNING 1 WK POST CARCINOGEN DOSE FOR DURATION OF STUDY (STUDY DURATION: 56 WK), Species: RAT, Strain/Sex: F344/MALE, Target Tissue: Type of Lesion: SMALL INTESTINE: ADENOCARCINOMA, Dose [Carcinogen]: 29.6 MG/KG IN NORMAL SALINE ONCE): 10/30 (33%), 7/30 (23%), 30%, not calculated
tumour outcome (control, treated, inhibition, significance) (Carcinogen: AZOXYMETHANE, 25843-45-2, 25 PPM IN DIET BEGINNING 1 WK POST CARCINOGEN DOSE FOR DURATION OF STUDY (STUDY DURATION: 56 WK), Species: RAT, Strain/Sex: F344/MALE, Target Tissue: Type of Lesion: SMALL INTESTINE: ADENOMA, Dose [Carcinogen]: 29.6 MG/KG IN NORMAL SALINE ONCE): 1/30 (3%), 0/30 (0%), 100%, not significant
tumour outcome (control, treated, inhibition, significance) (Carcinogen: AZOXYMETHANE, 25843-45-2, 75 PPM IN DIET BEGINNING 1 WK POST CARCINOGEN DOSE FOR DURATION OF STUDY (STUDY DURATION: 56 WK), Species: RAT, Strain/Sex: F344/MALE, Target Tissue: Type of Lesion: COLON: ADENOCARCINOMA, Dose [Carcinogen]: 29.6 MG/KG IN NORMAL SALINE ONCE): 17/30 (57%), 6/30 (20%), 65%, p<0.05
tumour outcome (control, treated, inhibition, significance) (Carcinogen: AZOXYMETHANE, 25843-45-2, 75 PPM IN DIET BEGINNING 1 WK POST CARCINOGEN DOSE FOR DURATION OF STUDY (STUDY DURATION: 56 WK), Species: RAT, Strain/Sex: F344/MALE, Target Tissue: Type of Lesion: COLON: ADENOMA, Dose [Carcinogen]: 29.6 MG/KG IN NORMAL SALINE ONCE): 11/30 (37%), 14/30 (47%), -27%, not calculated
tumour outcome (control, treated, inhibition, significance) (Carcinogen: AZOXYMETHANE, 25843-45-2, 75 PPM IN DIET BEGINNING 1 WK POST CARCINOGEN DOSE FOR DURATION OF STUDY (STUDY DURATION: 56 WK), Species: RAT, Strain/Sex: F344/MALE, Target Tissue: Type of Lesion: SMALL INTESTINE: ADENOCARCINOMA, Dose [Carcinogen]: 29.6 MG/KG IN NORMAL SALINE ONCE): 10/30 (33%), 9/30 (30%), 10%, not calculated
tumour outcome (control, treated, inhibition, significance) (Carcinogen: AZOXYMETHANE, 25843-45-2, 75 PPM IN DIET BEGINNING 1 WK POST CARCINOGEN DOSE FOR DURATION OF STUDY (STUDY DURATION: 56 WK), Species: RAT, Strain/Sex: F344/MALE, Target Tissue: Type of Lesion: SMALL INTESTINE: ADENOMA, Dose [Carcinogen]: 29.6 MG/KG IN NORMAL SALINE ONCE): 1/30 (3%), 2/30 (7%), -133%, not calculated
tumour outcome (control, treated, inhibition, significance) (Carcinogen: AZOXYMETHANE, 25843-45-2, 75 PPM IN THE DIET FOR 28 WK BEGINNING 2 WK PRIOR TO CARCINOGEN TREATMENT (STUDY DURATION: 30 WK), Species: RAT, Strain/Sex: F344/MALE, Target Tissue: Type of Lesion: COLON: TUMOR, Dose [Carcinogen]: 15 MG/KG BW 1/WK FOR 2 WK): 20/43 (47%), 19/56 (34%), 28%, p<0.05
tumour outcome (control, treated, inhibition, significance) (Carcinogen: AZOXYMETHANE, 25843-45-2, 150 PPM IN DIET BEGINNING 1 WK POST CARCINOGEN DOSE FOR DURATION OF STUDY (STUDY DURATION: 56 WK), Species: RAT, Strain/Sex: F344/MALE, Target Tissue: Type of Lesion: COLON: ADENOCARCINOMA, Dose [Carcinogen]: 29.6 MG/KG IN NORMAL SALINE ONCE): 17/30 (57%), 7/30 (23%), 59%, p<0.05
